These are literature values, as cited in patent US5811459A, “Ortho substituted aromatic compounds useful as antagonists of the pain enhancing effects of E-type prostaglandins” (Zeneca Limited, priority 1994, dated 1998).

In series [1] the test system is cat trachea or chick ileum. To be noted: other tissues such as the cat trachea or chick ileum.
The subject of series [2] is guinea pig ileum or dog fundus. To be noted: some tissues such as guinea pig ileum or dog fundus.

Regarding `CC(=O)NNC(=O)N1Cc2ccccc2Oc2ccc(Cl)cc21` [SC-19220], the “block of the effect of PGE2” value in series [1] is “not on other tissues”; in series [2], “blocks the effect of PGE2”.
